Data as given in the NIST ThermoML archive (doi:10.1021/je500594z).

Legend:
[1] = 101 kPa, Liquid; for viscosity: Falling or rolling sphere viscometry; for speed of sound: Sing-around technique in a fixed-path interferometer; for mass density: Vibrating tube method
[2] = xn = mol fraction of the nth substance listed; conditions: 101 kPa, Liquid, x2 = 0; for viscosity: Falling or rolling sphere viscometry; for speed of sound: Sing-around technique in a fixed-path interferometer; for mass density: Vibrating tube method

CCCCCC[n+]1ccn(C)c1.O=S(=O)([N-]S(=O)(=O)C(F)(F)F)C(F)(F)F
[1]
Conditions	mass density [kg/m3]	speed of sound [m/s]	viscosity [mPa·s]
278.15 K	1390.3	1274.6	211.31
298.15 K	1371.64	1226.8	70.46
318.15 K	1353.31	1182	30.22
338.15 K	1335.25	1139.3	–

CCCC[n+]1ccn(C)c1.O=S(=O)([N-]S(=O)(=O)C(F)(F)F)C(F)(F)F
[1]
Conditions	mass density [kg/m3]	speed of sound [m/s]	viscosity [mPa·s]
278.15 K	1453.69	1273.8	139.82
298.15 K	1434.23	1227.5	51.22
318.15 K	1415.13	1184	24.36
338.15 K	1396.35	1142.7	13.94

CCn1cc[n+](C)c1.O=S(=O)([N-]S(=O)(=O)C(F)(F)F)C(F)(F)F
[1]
Conditions	mass density [kg/m3]	speed of sound [m/s]	viscosity [mPa·s]
278.15 K	1538.23	1284.9	75.08
298.15 K	1517.76	1240.1	32.02
318.15 K	1497.65	1196.6	17.32
338.15 K	1477.86	1155.8	10.82

CCO [ethanol]
[1]
Conditions	mass density [kg/m3]	speed of sound [m/s]	viscosity [mPa·s]
278.15 K	802.39	1212.9	1.59
298.15 K	785.32	1143.1	1.08
318.15 K	767.84	1075.7	0.77
338.15 K	749.54	1009.4	0.56

CCO [ethanol] + CCCCCC[n+]1ccn(C)c1.O=S(=O)([N-]S(=O)(=O)C(F)(F)F)C(F)(F)F
[2]
Conditions	mass density [kg/m3]	speed of sound [m/s]	viscosity [mPa·s]
278.15 K	802.39	1212.9	1.59
298.15 K	785.32	1143.1	1.08
318.15 K	767.84	1075.7	0.77
338.15 K	749.54	1009.4	–

CCO [ethanol] + CCCC[n+]1ccn(C)c1.O=S(=O)([N-]S(=O)(=O)C(F)(F)F)C(F)(F)F
[2]
Conditions	mass density [kg/m3]	speed of sound [m/s]	viscosity [mPa·s]
278.15 K	802.39	1212.9	1.59
298.15 K	785.32	1143.1	1.08
318.15 K	767.84	1075.7	0.77
338.15 K	749.54	1009.4	0.56

CCO [ethanol] + CCn1cc[n+](C)c1.O=S(=O)([N-]S(=O)(=O)C(F)(F)F)C(F)(F)F
[2]
Conditions	mass density [kg/m3]	speed of sound [m/s]	viscosity [mPa·s]
278.15 K	802.39	1212.9	1.59
298.15 K	785.32	1143.1	1.08
318.15 K	767.84	1075.7	0.77
338.15 K	749.54	1009.4	0.56
